Laboratory results reported in patent US12138256B2, “Treatment of cardiopulmonary disorders” (Bayer Aktiengesellschaft, priority 2021, dated 2024).
Like-named read-outs stand apart in the source and are kept apart here.

Key:
[1] = tested on: guinea pig trachea pre-contracted with carbachol; experiment: Bronchorelaxation in vitro: carbachol pre-contracted guinea pig trachea rings, wash-out recovery factor (C-3.1); conditions: 1 μmol/l
Description: Male Dunkin Hartley guinea pig were euthanized using carbon dioxide. The primary bronchus was removed and placed in ice-cold Krebs-Henseleit buffer of following composition (in mmol/l): […] For recording of isometric tension, the bronchial rings were mounted between two hooks. One hook was connected to a force transducer the other was moveable and allowed a precise adjustment of resting tension at 1.5 g. During the equilibration period of 60 min the tissue was washed every 20 min with buffer. […] After 30 min, a cumulative dose response curve of the test compound was constructed. Every concentration was incubated till the response was stable. […] The relaxation was expressed as percentage tension. […] The recovery factor was calculated as a ratio of bronchodilation 1 h after compound application and bronchodilation 1 h after removal (wash out) of test compound. […] Relaxation via Cinaciguat (comparative example 1) and Riociguat (comparative example 2) reached a steady state within the 1 h incubation time. […] In contrast, relaxation induced by comparative example 11 was further progressing during the wash out period (recovery factor 1.41).

[2] = Phase I single dose inhaled, inhaled + charcoal block, oral and intravenous: pharmacokinetics and lung deposition (C-4.3); assay type: in vivo, human; conditions: for bioavailability / half-life: male, human, plasma; for half-life: read-out: elimination half-life (converted)
Description: Healthy white male subjects, aged 18 to 45 years with a body mass index (BMI) above/equal 18.5 and below/equal 29.9 kg/m^2 were treated in a clinical phase I study with a single inhaled dose of 1000 μg (nominal dose), a single inhaled dose of 1000 μg (nominal dose)+charcoal block, a single oral dose of 1000 μg and a single infusion over 2 h of 100 μg of example 4. As the bioavailability of an intravenous application is generally 100% per definition and therefore higher than in case of an oral or […] administration, the intravenous dose was carefully selected to be lower than the oral and inhaled dose to avoid higher plasma concentration resulting from a high IV dose and potential side effect, e.g. reduction in blood pressure or syncope. Therefore, 100 μg was selected for the IV dose in this investigation. Seven days washout period between treatments was applied. The subjects swallowed a solution for oral administration (20 ml comprising 1000 μg, see under D-2, table 50). The subjects received a solution as a single infusion over 2 hours (see under D-2 table 50). The subjects inhaled the drug powder from capsules (see under D-1, e.g. tables 17 and 20) inserted into a handheld inhalation device by one deep inhalative breath. After inhalation of the dry powder formulation of this drug, some parts of the nominal dose remain in the capsule and the device, the dose which reaches the body at the mouthpiece is called the emitted dose. The emitted dose can be calculated/determined as followed: nominal dose−(remains in the capsule+remains in the device). After inhalation of the dry powder, one part of the emitted dose enters the gastrointestinal tract (GIT) and is called the oral part of the emitted dose, the other part of the emitted dose which reaches the lung through the respiratory airways is called the lung dose and represents the lung deposited dose. As the lung is the target organ of the effect, the lung deposited dose must be quantified. Lung deposition can be indirectly estimated, by determining the part of the nominal dose which reaches the GIT and the remains in the capsule and the device. To investigate and determine lung deposition, the following investigations were done (see also FIG. 77): • 1—Inhaled application of a single dose of 1000 μg of the dry powder. • 2—Inhaled application of a single dose of 1000 μg of the dry powder in combination with oral administration of charcoal block. The charcoal block capped the oral absorption of GIT part of the dose, as example 4 completely adsorbed to charcoal block. This implies that the concentrations of example 4 measured reach the systemic circulation via the lung. • 3—Administration of a single oral dose of 1000 μg example 4 to determine the oral absorption. • 4—Administration of a 2 h infusion of example 4 to investigate the elimination.
Plasma concentrations of example 4 were measured after all different types of administrations, in addition the remains in the device and the capsule were measured after inhaled application. […] The longer terminal half-life after inhalation can be explained by the formation of a pulmonary depot of example 4 in the lungs from which the substance is continuously transferred to the circulatory system.
The emitted dose is calculated to be 720 μg, as the remains in the capsule were 160 μg and the remains in the device were 120 μg, see FIG. 79.

Structure (SMILES): O=C(O)c1ccc(CCN(CCc2ccccc2OCc2ccc(-c3ccc(C(F)(F)F)cc3)cc2Cl)[C@H]2CCCc3nc(C(=O)O)ccc32)cc1 [comparative example 11, (5S)-5-{[2-(4-carboxyphenyl)ethyl][2-(2-{[3-chloro-4′-(trifluoromethyl)[biphenyl]-4-yl]methoxy}phenyl)ethyl]amino}-5,6,7,8-tetrahydroquinoline-2-carboxylic acid]
- Relaxation (%) (timepoint at 70 min) Mean [1]: 72.2%
- Relaxation (%) (timepoint at 130 min) Mean [1]: 51.3%

Structure (SMILES): O=C(O)c1ccc(CCN(CCc2ccccc2OCc2ccc(-c3ccc(C(F)(F)F)cc3)cc2Cl)[C@H]2CCCc3nc(C(=O)O)ccc32)cc1 [example 4, (5S)-{[2-(4-Carboxyphenyl)ethyl][2-(2-{[3-chloro-4′-(trifluoromethyl)biphenyl-4-yl]methoxy}phenyl)-ethyl]amino}-5,6,7,8-tetrahydroquinoline-2-carboxylic acid]
- emitted dose ([2]; after inhalation of 1000 μg in humans): 720 µg
- oral part of the dose ([2]; inhaled 1000 μg): approximately 13 % of the nominal dose
- bioavailability ([2]; inhaled or intranasal, 1000 μg, dry powder inhaled with charcoal (lung dose), read-out: absolute bioavailability): 16.3%
- bioavailability ([2]; inhaled or intranasal, 1000 μg, dry powder inhaled without charcoal, read-out: absolute bioavailability): 18.8%
- half-life ([2]; inhaled or intranasal, 1000 ug, inhaled 1000 μg with charcoal): 16.1 h
- half-life ([2]; inhaled or intranasal, 1000 ug, inhaled 1000 μg without charcoal): 15.1 h
- bioavailability ([2]; inhaled or intranasal, 1000 ug, read-out: relative bioavailability, inhaled with charcoal block to inhaled without): 86.9%
- half-life ([2]; iv, 100 μg, intravenous, 100 μg infusion over 2 h): 0.26 h
- half-life ([2]; po, 1000 ug, oral, 1000 μg solution): 4.43 h
